From paper PMC9959349, “Discovery of the 3-Amino-1,2,4-triazine-Based Library as Selective PDK1 Inhibitors with Therapeutic Potential in Highly Aggressive Pancreatic Ductal Adenocarcinoma” (International Journal of Molecular Sciences, 2023)
Structures can show the parent of a compound that is named as a salt. Where two headings read alike, the source gives them in different places.

Columns and labels:
recombinant human HSP90 = recombinant human HSP90 (Homo sapiens, UniProt P07900); experiment: HSP90 inhibition assay (Transcreener ADP kit); assay type: biochemical; settings: for decrease of HSP90 catalytic activity: 1.5 µM compound (equivalent doses)
Description: The in vitro inhibitory activity of tested compounds on recombinant human HSP90 was assessed by The Transcreener™ ADP kit (Bellbrook Labs) according to the manufacturer’s protocol. Human recombinant HSP90 protein was incubated with tested compounds in the presence of 250 μM ATP at 37 °C for 30 min, 4°C for 30 min and ATPase activity was stopped via the addition of the stop and detect buffer. Following this, samples were incubated for 1 h at room temperature with the ADP2 Antibody and the ADP Alexa594 Tracer. The fluorescence intensity polarization of samples was measured with a Tecan plate reader (Tecan Infinite® M200). The evaluation was based on means from at least three independent experiments.

[1] = tested on: S232 PDH E1 alpha protein (PDHA1) phosphorylation in PSN-1 cells; experiment: Cellular PDH phosphorylation (ELISA); assay type: cell-based, human; settings: 24 h, IC50 concentrations
Description: As a first step, the ability of representative derivatives to target PDK in intact cancer cells was assessed by evaluating their effect on PDH phosphorylation of PSN-1 cancer cells.
PSN-1 cells (2 × 10^5) were seeded in a six-well plate in growth medium (4 mL). After 24 h, cells were incubated for 24 h with IC50 concentrations of tested compounds. Subsequently, the phosphorylation level of S232 PDH E1 alpha protein (PDHA1) was assessed by ELISA Kit (Abcam) following the manufacturer’s instructions. The amount of phosphorylated S232 PDHA1 protein was detected by measuring the absorbance of each well at 600 nm, using a Bio-Rad 680 microplate reader.

PSN-1 cells [2] = experiment: Cellular oxygen consumption (Mito-ID Extracellular O2 Sensor Kit); assay type: cell-based, human; settings: IC50 concentrations
Description: (§1) Cells were treated with DAP or representative compounds at IC50 concentrations and the changes in OCR and in the intracellular lactate formation were monitored.
PSN-1 cells (2 × 10^5) were seeded in a six-well plate in growth medium (4 mL). After 24 h, cells were incubated for 60 min with IC50 concentrations of tested compounds. Subsequently, oxygen consumption was assessed by Mito-ID® Extracellular O2 Sensor Kit according to manufacturer’s instructions. Fluorescence was measured using a Tecan microplate reader (Ex 340–400 nm, Em 630–680 nm).

PSN-1 cells [3] = experiment: Cellular lactate production; assay type: cell-based, human; settings: IC50 concentrations
Description: as §1
PSN-1 cells (2 × 10^5) were seeded in a six-well plate in a growth medium (4 mL). After 24 h, cells were incubated for 60 min with IC50 concentrations of tested compounds. Changes in lactate production were assessed via colorimetric microplate assay (Lactate assay kit®, Merk, St. Louis, MO, USA) according to the manufacturer’s instructions. The intracellular lactate concentration was detected by measuring the absorbance of each well at 570 nm, using a Bio-Rad 680 microplate reader.

PSN-1 cells [4] = experiment: ROS production (CM-H2DCFDA); assay type: cell-based, human; settings: 5 µM test compounds, antimycin 3 µM as positive control
Description: Consistently, tested compounds, although to different extents, were effective in reducing total cellular sulfhydryl contents in PSN-1-treated cells (Figure 9B).
The production of ROS was measured in PSN-1 cells (10^4 per well) grown for 24 h in a 96-well plate in RPMI medium without phenol red (Sigma Aldrich, Germany). Cells were then washed with PBS and loaded with 10 μM 5-(and-6)-chloromethyl-2′,7′-dichlorodihydrofluorescein diacetate acetylester (CM–H2DCFDA) (Molecular Probes-Invitrogen, Eugene, OR, USA) for 45 min, in the dark. Afterward, cells were washed with PBS and incubated with tested compounds. Fluorescence increase was estimated utilizing the wavelengths of 485 nm (excitation) and 527 nm (emission) in a VICTOR X3 (PerkinElmer, USA) plate reader. Antimycin (3 μM, Sigma Aldrich), a potent inhibitor of Complex III in the electron transport chain, was used as the positive control.

PSN-1 cells [5] = experiment: Mitochondrial membrane potential (Mito-ID kit); assay type: cell-based, human; settings: IC50 concentrations
Description: The ΔΨ was assayed using the Mito-ID® Membrane Potential Kit according to the manufacturer’s instructions (Enzo Life Sciences, Farmingdale, NY, USA) as previously described. Briefly, PSN-1 cells (8 × 10^3 per well) were seeded in 96-well plates; after 24 h, cells were washed with PBS and loaded with Mito-ID Detection Reagent for 30 min at 37 °C in the dark. Afterward, cells were incubated with tested compounds for 60 min. CCCP (Carbonyl cyanide 3-chlorophenyl-hydrazone) was used as the positive control. Fluorescence intensity was estimated using a VICTOR X3 (PerkinElmer, Waltham, MA, USA) plate reader at 490 (excitation) and 590 nm (emission).

recombinant human PDK1 = recombinant human PDK1 (Homo sapiens, UniProt Q15118); experiment: ADP-Glo kinase assay, PDK1; settings: for effect on enzymatic activity of PDK1: 1.5 µM compound, 30 min preincubation
Chain of recombinant human PDK1 (Q15118 29-436): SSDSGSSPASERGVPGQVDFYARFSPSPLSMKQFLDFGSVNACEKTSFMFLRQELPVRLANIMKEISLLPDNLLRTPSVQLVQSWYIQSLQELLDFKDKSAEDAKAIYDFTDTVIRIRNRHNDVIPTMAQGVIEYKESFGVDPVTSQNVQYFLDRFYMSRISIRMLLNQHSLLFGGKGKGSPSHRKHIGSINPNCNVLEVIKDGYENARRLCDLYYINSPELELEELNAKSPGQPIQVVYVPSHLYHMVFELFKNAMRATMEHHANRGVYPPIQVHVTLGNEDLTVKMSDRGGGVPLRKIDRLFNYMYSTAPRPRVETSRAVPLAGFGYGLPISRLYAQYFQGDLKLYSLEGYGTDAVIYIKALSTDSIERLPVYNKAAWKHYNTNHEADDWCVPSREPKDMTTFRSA
Description: (§4) The ability of tested compounds to inhibit the activity of PDK 1–4 isoforms was primarily assessed in cell-free experiments by a chemioluminescent assay, the ADPGlo™ Kinase Assay kit from Promega (Promega Corporation, Madison, WI, USA).
(§5) The in vitro inhibitory activity of tested compounds on recombinant human PDK1-4 isoforms (Abcam, Cambridge, MA, USA) was evaluated by using the ADPGlo™ Kinase Assay kit from Promega (Promega Corporation, Madison, WI, USA) following the instructions of the manufacturer. […] The reaction was then started by the addition of substrate/ATP for 60 min at room temperature. Subsequently, ADP-Glo™ reagent was added and incubated for 40 min prior to kinase detection reagent addition. After 30 min, the luminescence was measured with a Tecan plate reader (Tecan Infinite® M200). Raw data were normalized to the values of control wells and luminescence values for each drug dose were expressed as a percentage of the luminescence of control untreated wells. […] The evaluation was based on means from at least three independent experiments.

PSN-1 cells [6] = experiment: 3D spheroid cytotoxicity, acid phosphatase (APH) assay, PSN-1; settings: read-out: IC50 ±S.D. PSN-1 (3D cytotoxicity); spheroids, 72 h, APH test
Description: (§6) The PDAC cancer spheroids were treated with tested compounds for 72 h, and cell viability was assessed by means of the acid phosphatase (APH) assay (Table 3).
(§7) An APH-modified assay was used for determining cell viability in 3D spheroids, as previously described [61]. Briefly, the pre-seeded spheroids were treated with fresh medium containing the compound to be studied at the appropriate concentration (range 2.5–200 μM). Triplicate cultures were established for each treatment. After 72 h, each well was treated with 100 μL of the assay buffer (0.1 M sodium acetate, 0.1% Triton-X-100, supplemented with ImmunoPure p-nitrophenyl phosphate; Sigma Chemical Co., Ltd.) and, following 3 h of incubation, 10 μL of 1 M NaOH solution was added. […] The mean absorbance for each drug dose was expressed as a percentage of the control untreated well absorbance (T/C) and plotted vs. drug concentration. […] The evaluation was based on means from at least four independent experiments.

BxPC-3 cells [7] = experiment: 3D spheroid cytotoxicity, acid phosphatase (APH) assay, BxPC-3; settings: read-out: IC50 ±S.D. BxPC-3 (3D cytotoxicity); spheroids, 72 h, APH test
Description: as §6, §7

PSN-1 cells [8] = experiment: 2D cytotoxicity, MTT assay, PSN-1; assay type: cell-based; settings: Homo sapiens, PSN1, 72 h, read-out: IC50 ±S.D. PSN-1 (2D cytotoxicity)
Description: (§2) All newly synthesized compounds were then screened for their cytotoxic activity against two human PDAC cell lines, namely a KRAS-wild-type PDAC cell line (BxPC-3 cells) and a KRAS-mutant PDAC cell line (PSN-1 cells). […] The cytotoxicity parameters, expressed in terms of IC50 and obtained after 72 h of drug exposure by MTT assay, are listed in the Supplementary Materials (Table S2).
(§3) The growth inhibitory effect on tumor cells was evaluated by means of the MTT assay. Briefly, 3–8 × 10^3 cells/well, dependent upon the growth characteristics of the cell line, were seeded in 96-well microplates in growth medium (100 μL). After 24 h, the medium was removed and replaced with a fresh one containing the compound to be studied at the appropriate concentration. Triplicate cultures were established for each treatment. After 72 h, each well was treated with 10 μL of a 5 mg/mL MTT saline solution, and following 5 h of incubation, 100 μL of a sodium dodecyl sulfate (SDS) solution in HCl 0.01 M was added. After overnight incubation, cell growth inhibition was detected by measuring the absorbance of each well at 570 nm using a Bio-Rad 680 microplate reader. The mean absorbance for each drug dose was expressed as a percentage of the control untreated well absorbance and plotted vs. drug concentration. IC50 values, the drug concentrations that reduce the mean absorbance at 570 nm to 50% of those in the untreated control wells, were calculated by the four-parameter logistic (4-PL) model. The evaluation was based on means from at least four independent experiments.

BxPC-3 cells [9] = experiment: 2D cytotoxicity, MTT assay, BxPC-3; assay type: cell-based; settings: Homo sapiens, BXPC-3, 72 h, read-out: IC50 ±S.D. BxPC-3 (2D cytotoxicity)
Description: as §2, §3

recombinant human PDK4 = recombinant human PDK4 (Homo sapiens, UniProt Q16654); experiment: ADP-Glo kinase assay, PDK4; settings: 1.5 µM compound
Chain of recombinant human PDK4 (Q16654 whole entry): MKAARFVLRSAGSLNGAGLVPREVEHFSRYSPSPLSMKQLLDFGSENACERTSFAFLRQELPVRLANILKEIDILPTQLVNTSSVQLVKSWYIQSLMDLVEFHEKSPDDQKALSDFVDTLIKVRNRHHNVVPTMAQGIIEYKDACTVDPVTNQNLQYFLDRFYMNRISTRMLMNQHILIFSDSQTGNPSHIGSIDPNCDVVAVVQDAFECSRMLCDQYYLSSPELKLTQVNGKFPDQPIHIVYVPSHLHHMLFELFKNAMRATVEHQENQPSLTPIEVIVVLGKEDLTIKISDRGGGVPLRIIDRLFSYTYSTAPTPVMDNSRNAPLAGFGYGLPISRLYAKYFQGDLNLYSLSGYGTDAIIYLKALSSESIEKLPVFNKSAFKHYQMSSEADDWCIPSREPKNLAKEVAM
Description: as §4, §5

[10] = Body weight changes of LLC-bearing mice; assay type: in vivo; settings: LLC-bearing C57BL mice, daily dosing; gemcitabine 60 mg kg−1, cisplatin 3 mg kg−1
[11] = tested on: murine Lewis Lung Carcinoma (LLC); experiment: In vivo anticancer activity, LLC solid tumor model; settings: LLC-bearing C57BL mice, daily dosing days 7-14, evaluated day 15; 5i 20 mg kg−1 i.p., gemcitabine 60 mg kg−1, cisplatin 3 mg kg−1
Description: Seven days after tumor inoculation the tumor-bearing mice were randomized into vehicle control and treatment groups.
The LLC was implanted intramuscularly (i.m.) as a 2 × 10^6 cell inoculum into the right hind leg of 8-week-old male and female C57BL mice (24 ± 3 g body weight). After 7 days from tumor implantation (visible tumors), mice were randomly divided into 4 groups (8 animals per group) and subjected to daily i.p. administration. […] At day 15, animals were sacrificed, the legs were amputated at the proximal end of the femur, and the inhibition of tumor growth was determined from the difference in the weights of the tumor-bearing leg and the healthy leg of the animals, expressed as a percentage referenced to the control animals. Body weight was measured at day 0 and from day 7 onwards every 2 days and was taken as a parameter for systemic toxicity. All presented values are the means ± SD of no less than three measurements.

[12] = 72 h, MTT test, KRAS-mutant PSN-1
[13] = 72 h, MTT test, KRAS-wild-type BxPC-3

Compound	decrease of HSP90 catalytic activity (recombinant human HSP90)	ROS basal level production / hydrogen peroxide formation (PSN-1 cells [4])	percentage of cells with hypopolarized mitochondrial membrane potential (in words) (PSN-1 cells [5])	melting point [°C]	IC50 (recombinant human PDK1) [µM]	effect on enzymatic activity of PDK1 (recombinant human PDK1)	IC50 (PSN-1 cells [6]) [µM]	IC50 (BxPC-3 cells [7]) [µM]	IC50 (PSN-1 cells [8]; [12]) [µM]	IC50 (BxPC-3 cells [9]; [13]) [µM]	other results
COc1ccc2c(c1)c(-c1nc(N)nnc1-c1cn(C)c3ccc(F)cc13)cn2C [5k]	60–80%	even higher than that provoked by antimycin	significantly increased	239.5	0.01 ± 0.003	totally suppressed	15.9 ± 2.3	67.9 ± 3.7	–	–	reduction in phospho-PDHA1 (S232) levels [1]: very similar to that exerted by the reference PDK inhibitor DAP; cellular oxygen consumption (OCR) (PSN-1 cells [2]): more effective than DAP; lactate production (PSN-1 cells [3]): more potent than DAP
O=C(c1ccccc1)C(Cl)Cl [DAP, 2,2-dichloroacetophenone, reference compound]	–	–	–	–	> 100	–	78.2 ± 6.8	87.4 ± 8.9	–	–	IC50 (PSN-1 cells [8]): 10.2 ± 1.6 µM; IC50 (BxPC-3 cells [9]): 1.06 ± 0.9 µM
Cn1cc(-c2nnc(N)nc2-c2cn(C)c3ccccc23)c2cc(Br)ccc21 [6j]	60–80%	even higher than that provoked by antimycin	significantly increased	266	–	totally suppressed	18.1 ± 2.3	41.2 ± 3.6	0.6 ± 0.1	0.2 ± 0.04	reduction in phospho-PDHA1 (S232) levels [1]: very similar to that exerted by the reference PDK inhibitor DAP; IC50 (recombinant human PDK1; read-out: IC50 ±S.D. PDK1, four-parameter logistic model, three independent experiments): 0.07 ± 0.02 µM; effect on PDK4 activity (ATP consumption) (recombinant human PDK4): completely blocked
Cn1cc(-c2nnc(N)nc2-c2cn(C)c3ccc(Br)cc23)c2ccccc21 [5j]	–	–	–	257.3	–	–	10.4 ± 1.6	16.7 ± 2	0.4 ± 0.1	0.1 ± 0.04	–
Cn1cc(-c2nc(N)nnc2-c2c[nH]c3ccc(F)cc23)c2cc(Br)ccc21 [5x]	–	–	–	267.6	0.7	–	–	–	0.3 ± 0.1	0.2 ± 0.04	IC50 (recombinant human HSP90): > 1.5 µM
Nc1ccn([C@@H]2O[C@H](CO)[C@@H](O)C2(F)F)c(=O)n1 [Gemcitabine, gemcitabine hydrochloride, reference compound]	–	–	–	–	–	–	160 ± 5.6	103 ± 6.3	0.1 ± 0.04	0.02 ± 0.003	body weight loss [10]: ~ 20%; reduction in tumor growth compared to the control group [11]: about 80%
N.N.[Cl][Pt][Cl] [cisplatin]	–	–	–	–	–	–	–	–	–	–	body weight loss [10]: ~ 20%; reduction in tumor growth compared to the control group [11]: ~ 84%
COc1ccc2c(c1)c(-c1nnc(N)nc1-c1c[nH]c3ccc(Br)cc13)cn2C [6s]	60–80%	increase in the ROS basal level production	significantly increased	207.7	0.09 ± 0.04	totally suppressed	22.3 ± 2.3	29.2 ± 1.4	–	–	effect on PDK4 activity (ATP consumption) (recombinant human PDK4): completely blocked
